Measurements published in patent US20200247897A1, “THERAPEUTIC ANTIBODIES BASED ON MUTATED IGG HEXAMERS” (GENMAB B.V., priority 2017, published 2020).

Key:
[1] = tested on: BxPC-3 pancreatic cancer cells; assay: 3-days CellTiter-Glo viability assay, BxPC-3; conditions: Z-VAD-FMK 5 μM
[2] = tested on: BxPC-3 pancreatic cancer cells; assay: Caspase-Glo 3/7 assay, BxPC-3; type: cell-based, human; conditions: 26.6 nM; 1, 2, 4 to 6 hours

“TRAIL: natural DR5 ligand, recombinant human TRAIL/APO-2L” was tested, and the “viability of BxPC-3 cells in presence of pan-caspase inhibitor Z-VAD-FMK” value [1] was “inhibited in the presence of pan-caspase inhibitor Z-VAD-FMK” and the caspase-3/7 activation [2] was “more rapid and more potent caspase-3/7 activation”.
